Test results taken from ChEMBL document CHEMBL3632568, “Synthesis and biological evaluation of polyalthic acid derivatives for the treatment of neglected diseases” (Bioorg Med Chem Lett, 2015).
Values after ≈ are worked out from the molar mass of the structure shown. Active and inactive are the calls of the source. No cut-off for these calls is given here.

Assays:
Assay type in all cases: functional, organism-based
[1] = tested on: Trypanosoma brucei; assay: Antitrypanosomal activity against trypamastigote stage of Trypanosoma brucei assessed as growth inhibition after 72 hrs by Alamar Blue assay
[2] = tested on: Leishmania donovani; assay: Antileishmanial activity against axenic amastigote stage of Leishmania donovani assessed as growth inhibition after 72 hrs by Alamar Blue assay
[3] = tested on: Leishmania donovani; assay: Antileishmanial activity against promastigote stage of Leishmania donovani assessed as growth inhibition at 0.0128 to 40 ug/ml after 72 hrs by Alamar Blue assay

IC50 [1] [µg/mL]	IC90 [1] [µg/mL]	Compound	IC50 [2] [µg/mL]	IC90 [2] [µg/mL]	inhibition [3]
4.52 (≈ 4.89 µM)	10.1 (≈ 10.9 µM)	C[C@@H]1[C@H](O)[C@@H](C)/C=C/C=C/C=C/C=C/C=C/C=C/C=C/[C@H](O[C@@H]2O[C@H](C)[C@@H](O)[C@H](N)[C@@H]2O)C[C@@H]2O[C@](O)(C[C@@H](O)C[C@@H](O)[C@H](O)CC[C@@H](O)C[C@@H](O)CC(=O)O[C@H]1C)C[C@H](O)[C@H]2C(=O)O [AMPHOTERICIN B]	0.195 (≈ 0.211 µM)	0.301 (≈ 0.326 µM)	–
3.87 (≈ 12.2 µM)	8.12 (≈ 25.7 µM)	C=C1CC[C@H]2[C@@](C)(CCC[C@]2(C)C(=O)O)[C@@H]1CCc1ccoc1	8.68 (≈ 27.4 µM)	> 10	–
7.68 (≈ 18.8 µM)	> 10	COCCNC(=O)[C@@]1(C)CCC[C@@]2(C)[C@H](CCc3ccoc3)C(O)(CO)CC[C@@H]21 (some centres not stated)	> 10	> 10	inactive
5 (≈ 13.5 µM)	8.82 (≈ 23.7 µM)	C=C1CC[C@H]2[C@@](C)(CCC[C@]2(C)C(=O)N(CC)CC)[C@@H]1CCc1ccoc1	5.12 (≈ 13.8 µM)	8.75 (≈ 23.5 µM)	inactive
2.74 (≈ 7.66 µM)	4.9 (≈ 13.7 µM)	C=C1CC[C@H]2[C@@](C)(CCC[C@]2(C)C(=O)NC(C)C)[C@@H]1CCc1ccoc1	7.04 (≈ 19.7 µM)	> 10	inactive
2.58 (≈ 6.91 µM)	4.71 (≈ 12.6 µM)	C=C1CC[C@H]2[C@@](C)(CCC[C@]2(C)C(=O)NCCOC)[C@@H]1CCc1ccoc1	6.73 (≈ 18 µM)	> 10	inactive
9.88 (≈ 24.7 µM)	> 10	C=C1CC[C@H]2[C@@](C)(CCC[C@]2(C)C(=O)NC2CCOCC2)[C@@H]1CCc1ccoc1	> 10	> 10	inactive
6.85 (≈ 17.2 µM)	> 10	C=C1CC[C@H]2[C@@](C)(CCC[C@]2(C)C(=O)N2CCN(C)CC2)[C@@H]1CCc1ccoc1	> 10	> 10	inactive
0.002 (≈ 0.00587 µM)	0.003 (≈ 0.00881 µM)	N=C(N)c1ccc(OCCCCCOc2ccc(C(=N)N)cc2)cc1 [PENTAMIDINE]	1.89 (≈ 5.54 µM)	5.81 (≈ 17.1 µM)	–
> 10	> 10	C=C1CC[C@H]2[C@@](C)(CCC[C@]2(C)C(=O)NCCN(C)C)[C@@H]1CCc1ccoc1	> 10	> 10	inactive
> 10	> 10	C=C1CC[C@H]2[C@@](C)(CCC[C@]2(C)C(=O)NCCOCCO)[C@@H]1CCc1ccoc1	> 10	> 10	inactive
5.75 (≈ 14 µM)	8.52 (≈ 20.7 µM)	C=C1CC[C@H]2[C@@](C)(CCC[C@]2(C)C(=O)NCC2CCCCC2)[C@@H]1CCc1ccoc1	3.84 (≈ 9.33 µM)	7.75 (≈ 18.8 µM)	inactive
5.62 (≈ 15.8 µM)	8.96 (≈ 25.2 µM)	C=C1CC[C@H]2[C@@](C)(CCC[C@]2(C)C(=O)NC2CC2)[C@@H]1CCc1ccoc1	8.21 (≈ 23.1 µM)	> 10	inactive
3.58 (≈ 9 µM)	8.1 (≈ 20.4 µM)	C=C1CC[C@H]2[C@@](C)(CCC[C@]2(C)C(=O)NC2CCCCC2)[C@@H]1CCc1ccoc1	4.23 (≈ 10.6 µM)	8.19 (≈ 20.6 µM)	inactive
6.25 (≈ 14.9 µM)	> 10	C[C@@]12CCC[C@](C)(C(=O)N3CCOCC3)[C@H]1CCC(O)(CO)[C@H]2CCc1ccoc1 (some centres not stated)	> 10	> 10	inactive
6.14 (≈ 16.5 µM)	9.13 (≈ 24.6 µM)	C=C1CC[C@H]2[C@@](C)(CCC[C@]2(C)C(=O)NCCCC)[C@@H]1CCc1ccoc1	5.93 (≈ 16 µM)	9.02 (≈ 24.3 µM)	inactive
6.51 (≈ 14.6 µM)	9.15 (≈ 20.5 µM)	C[C@@]12CCC[C@](C)(C(=O)NCC3CCCCC3)[C@H]1CCC(O)(CO)[C@H]2CCc1ccoc1 (some centres not stated)	> 10	> 10	inactive
4.62 (≈ 12 µM)	8.3 (≈ 21.5 µM)	C=C1CC[C@H]2[C@@](C)(CCC[C@]2(C)C(=O)N2CCOCC2)[C@@H]1CCc1ccoc1	9.9 (≈ 25.7 µM)	> 10	inactive
